Data set [1] can be described thus: xn = mol fraction of the nth substance listed. To be noted: x2 = 0.
For data set [2] the following is noted: for mass density: 101.33 kPa, Liquid, Vibrating tube method.

The structures appear in SMILES notation. Numbers after ± are expanded uncertainties.

Take `O` [water] + CCCCCC(=O)O: the surface tension liquid-gas (usually the work needed to enlarge the surface of a liquid by unit area) is listed as 72.58 ± 1.4 mN/m in data set [1] (293.15 K), 71.81 ± 1.4 mN/m in data set [1] (298.15 K), 71.04 ± 1.4 mN/m in data set [1] (303.15 K) and 70.23 ± 1.4 mN/m in data set [1] (308.15 K).

As to `CCCCC(=O)O` [pentanoic acid], the surface tension liquid-gas is given as 27.13 ± 0.79 mN/m in data set [2] (293.15 K), 26.8 ± 0.79 mN/m in data set [2] (298.15 K), 26.23 ± 0.78 mN/m in data set [2] (303.15 K) and 25.8 ± 0.77 mN/m in data set [2] (308.15 K). For the same compound, the mass density (usually the mass of a sample divided by its volume) is recorded as 938.29 ± 0.3 kg/m3 in data set [2] (293.15 K), 933.9 ± 0.3 kg/m3 in data set [2] (298.15 K), 929.39 ± 0.3 kg/m3 in data set [2] (303.15 K) and 924.73 ± 0.3 kg/m3 in data set [2] (308.15 K).

As for `CCC(=O)O` [propanoic acid], the surface tension liquid-gas is on record as 26.68 ± 0.78 mN/m in data set [2] (293.15 K), 26.11 ± 0.77 mN/m in data set [2] (298.15 K), 25.7 ± 0.76 mN/m in data set [2] (303.15 K) and 25.16 ± 0.76 mN/m in data set [2] (308.15 K). The mass density in data set [2] (293.15 K) was found to be 993.42 ± 0.12 kg/m3; in data set [2] (298.15 K), 988.21 ± 0.12 kg/m3; in data set [2] (303.15 K) it was 982.88 ± 0.12 kg/m3; in data set [2] (308.15 K), 977.43 ± 0.12 kg/m3.

For the compound `O` [water] + CCC(=O)O, the surface tension liquid-gas in data set [1] (293.15 K) is listed as 72.58 ± 1.4 mN/m; in data set [1] (298.15 K), 71.81 ± 1.4 mN/m; in data set [1] (303.15 K), 71.04 ± 1.4 mN/m; in data set [1] (308.15 K), 70.23 ± 1.4 mN/m.

Consider `O` [water] + CCCCC(=O)O, for which the surface tension liquid-gas in data set [1] (293.15 K) stood at 72.58 ± 1.4 mN/m; in data set [1] (298.15 K) it was 71.81 ± 1.4 mN/m; in data set [1] (303.15 K), 71.04 ± 1.4 mN/m; in data set [1] (308.15 K), 70.23 ± 1.4 mN/m.

Turning to `CCCC(=O)O` [butanoic acid], the surface tension liquid-gas in data set [2] (293.15 K) was found to be 26.73 ± 0.78 mN/m; in data set [2] (298.15 K), 26.19 ± 0.77 mN/m; in data set [2] (303.15 K), 25.56 ± 0.76 mN/m; in data set [2] (308.15 K) it was 25.03 ± 0.75 mN/m. In addition, the mass density turned out to be 957.61 ± 0.13 kg/m3 in data set [2] (293.15 K), 952.77 ± 0.13 kg/m3 in data set [2] (298.15 K), 947.94 ± 0.13 kg/m3 in data set [2] (303.15 K) and 942.91 ± 0.13 kg/m3 in data set [2] (308.15 K).

As for `O` [water] + CCCC(=O)O, the surface tension liquid-gas in data set [1] (293.15 K) came to 72.58 ± 1.4 mN/m; in data set [1] (298.15 K) it was 71.81 ± 1.4 mN/m; in data set [1] (303.15 K) it was 71.04 ± 1.4 mN/m; in data set [1] (308.15 K), 70.23 ± 1.4 mN/m.

Take `CCCCCC(=O)O` [hexanoic acid]: the surface tension liquid-gas in data set [2] (293.15 K) amounted to 28.12 ± 0.8 mN/m; in data set [2] (298.15 K) it was 27.54 ± 0.79 mN/m; in data set [2] (303.15 K) it was 27.12 ± 0.78 mN/m; in data set [2] (308.15 K), 26.66 ± 0.78 mN/m. For the same compound, the mass density in data set [2] (293.15 K) is 925.38 ± 0.14 kg/m3; in data set [2] (298.15 K), 921.2 ± 0.14 kg/m3; in data set [2] (303.15 K) it was 917.02 ± 0.14 kg/m3; in data set [2] (308.15 K), 912.6 ± 0.14 kg/m3.

These data come from the NIST ThermoML archive (doi:10.1021/je1002829).
